Experimental data: patent US6011013A, “Contraceptive compositions and methods” (Oregon Health Sciences University, priority 1998, dated 2000)

Columns and labels:
[1] = test system: bovine caudal epididymal sperm; test: Sperm motility by computer-automated sperm motility analysis (CASMA), Forward Motility Index; type: cell-based
Description: (A) Sperm were incubated in buffer A containing s-Ht31 at 5 μM (circle), 10 μM (square) or 50 μM (diamond) or a control peptide, S-Ht31-P at 50 μM (cross). Motility was assessed at the times indicated by computer-automated sperm motility analysis (CASMA) as described in Experimental Procedures. (B) Sperm were incubated for 5 min in buffer A containing increasing concentrations of S-Ht31 (diamonds) or control peptide S-Ht31-P (triangle) and motility was assessed.
(A) Bovine caudal epididymal sperm were suspended in buffer A supplemented with 2 mM calcium (+Calcium) or 2 mM EGTA (-Calcium). Motility was assessed by CASMA at 5, 30 and 60 min following addition of either water (control) or 10 μM s-Ht31. (B) Sperm were incubated in buffer A containing 2 mM calcium and 50 mM bicarbonate (where indicated). Motility was assessed at 5, 30 and 60 min following addition of either water (control) or 10 μM s-Ht31.
(§1) (A). Bovine caudal and caput sperm were incubated in buffer A in the presence or absence of 50 μM CDA and/or 50 μM H-89. When sperm were treated with both CDA and H-89, the H-89 was added 15 min prior to CDA. Motility was assessed by CASMA at 15 min following treatment. (B) Bovine sperm were incubated as described for A and then assessed for PKA activity. Where indicated, 10 μM cAMP was added to the PKA assay.
Sperm Preparation. […]
Sperm Motility Measurement. Head motility parameters were determined as previously described (Vijayaraghavan et al., Biol. Reprod 54:709-718, 1996; Stephens et al., Biol. Reprod. 38:577-586, 1988). […] After bulk fluid movement had subsided, six different locations on the slide were recorded. The videotaped segments were analyzed by a computerized image-analysis system (CASMA) as previously described (Vijayaraghavan et al., Biol. Reprod. 54:709-718, 1996; Stephens et al., Biol. Reprod. 38:577-586, 1988). […] FMI is a product of percent motile (%M, percent of sperm moving at velocity greater than […]) and average velocity (Va, the five-point smoothed average of the head positions through at least 20 of the 30 frames analyzed).

PKA = PKA activity of sperm treated whole, then washed and lysed; type: cell-based, bovine; conditions: 50 μM
Description: as §1
PKA Activity PKA was assayed as previously described (Carr et al., J. Biol. Chem. 268:20729-20732, 1993) with minor changes. Whole caput or caudal sperm were treated with 2-chloro-2-deoxyadenosine (50 μM), H-89 (50 μM), or both for 30 min. at 37° C. The sperm were then washed twice in ice cold homogenization buffer supplemented with protease inhibitors, benzamidine (10 mM), leupeptin (4 μg/ml), and N-tosyl-L-phenylalanine chloromethyl ketone (TPCK) (100 μM), and sonicated for one min. Reaction mixtures (20 uL total) contained 250 μM kemptide, 250 μM (γ-^32 P)ATP, 25 mM Na3 VO4, 50 mM 3-[N-morpholino]propanesulfonic acid (MOPS) (pH=7.0), 10 mM MgCl2, 0.25 mg/ml BSA and where indicated, 10 μM cAMP. Assays were initiated by addition of labeled ATP, incubated for 2 min at 30° C., and stopped by addition of 30 μL of 1N HCl. […] The papers were then analyzed by Cerenkov counting. […]

bovine caput sperm = test: Caput sperm motility by CASMA; type: cell-based; conditions: 50 μM H-89 added 15 min prior to 50 μM CDA
Description: (A). Bovine caudal and caput sperm were incubated in buffer A in the presence or absence of 50 μM CDA and/or 50 μM H-89. When sperm were treated with both CDA and H-89, the H-89 was added 15 min prior to CDA. Motility was assessed by CASMA at 15 min following treatment. (B) Bovine sperm were incubated as described for A and then assessed for PKA activity. Where indicated, 10 μM cAMP was added to the PKA assay. Sperm Preparation. Testes from mature bulls with intact tunica were obtained from a local slaughter house and sperm from caput or caudal epididymis were isolated and washed as previously described (Vijayaraghavan et al., Biol. Reprod. 32:489-500, 1985). […] Head motility parameters were determined as previously described (Vijayaraghavan et al., Biol. Reprod 54:709-718, 1996; Stephens et al., Biol. Reprod. 38:577-586, 1988). […] After bulk fluid movement had subsided, six different locations on the slide were recorded. The videotaped segments were analyzed by a computerized image-analysis system (CASMA) as previously described (Vijayaraghavan et al., Biol. Reprod. 54:709-718, 1996; Stephens et al., Biol. Reprod. 38:577-586, 1988). […] FMI is a product of percent motile (%M, percent of sperm moving at velocity greater than […]) and average velocity (Va, the five-point smoothed average of the head positions through at least 20 of the 30 frames analyzed).

sperm = type: cell-based, bovine
Description: To determine if S-Ht31 affects sperm viability or structural integrity, the vital dyes SYBR-green and rhodamine 123 were added to sperm before and after treatment with S-Ht31. Only viable, intact cells take up these dyes.

Nc1nc(Cl)nc2c1ncn2[C@H]1C[C@H](O)[C@@H](CO)O1 [CDA, 2-chloro-2-deoxyadenosine]
sperm motility under conditions where sperm PKA is inhibited ([1]; with H-89): still induce or stimulate sperm motility | increase of basal PKA activity (PKA; both caudal and caput sperm, absence of cAMP): approximately 60%

O=S(=O)(NCCNCC=Cc1ccc(Br)cc1)c1cccc2cnccc12 [H-89, N-[2-(p-bromocinnamylamino)ethyl]-5-isoquinoline-sulfonamide]
effect on sperm motility stimulated by CDA ([1]; 50 μM H-89, 50 μM CDA): had no effect | inhibition at 50 µM ([1]; Bos taurus, Sperm, 50 μM, read-out: inhibition of basal sperm motility): ≤ 50% | effect on cellular PKA activity (PKA; sperm washed before lysis): strongly inhibited PKA activity | effect of preincubation on motility induction by CDA in caput sperm (bovine caput sperm): unaffected

C[C@@H]1CC[C@@]2(OC1)O[C@H]1[C@@H](O)[C@H]3[C@@H]4CC[C@H]5C[C@@H](O[C@@H]6O[C@H](CO)[C@H](O[C@@H]7O[C@H](CO)[C@@H](O)[C@H](O[C@@H]8OC[C@@H](O)[C@H](O)[C@H]8O)[C@H]7O[C@@H]7O[C@H](CO)[C@H](O)[C@H](O[C@@H]8O[C@H](CO)[C@@H](O)[C@H](O)[C@H]8O)[C@H]7O)[C@H](O)[C@H]6O)[C@H](O)C[C@]5(C)[C@H]4CC[C@]3(C)[C@H]1[C@@H]2C [digitonin]
release of dyes from sperm loaded with BCECF or Fura 2 (plasma membrane integrity) (sperm): caused release of these dyes

CCCCCCCCCCCCCCCCCC(=O)N[C@@H](CC(=O)O)C(=O)N[C@@H](CC(C)C)C(=O)N[C@H](C(=O)N[C@@H](CCC(=O)O)C(=O)N[C@@H](CCC(=O)O)C(=O)N[C@@H](C)C(=O)N[C@@H](C)C(=O)N[C@@H](CO)C(=O)N[C@@H](CCCNC(=N)N)C(=O)N[C@H](C(=O)N[C@H](C(=O)N[C@@H](CC(=O)O)C(=O)N[C@@H](C)C(=O)N[C@H](C(=O)N[C@H](C(=O)N[C@@H](CCC(=O)O)C(=O)N[C@@H](CCC(N)=O)C(=O)N[C@H](C(=O)N[C@@H](CCCCN)C(=O)N[C@@H](C)C(=O)N[C@@H](C)C(=O)NCC(=O)N[C@@H](C)C(=O)N[C@@H](Cc1ccc(O)cc1)C(=O)O)C(C)C)[C@@H](C)CC)C(C)C)C(C)C)[C@@H](C)CC)[C@@H](C)CC [s-Ht31]
release of dyes from sperm loaded with BCECF or Fura 2 (plasma membrane integrity) (sperm): did not compromise the integrity of the plasma membrane | sperm viability and plasma membrane integrity (uptake of vital dyes SYBR-green and rhodamine 123) (sperm): did not decrease viability or disrupt the integrity of the sperm plasma membrane
